Laboratory results as given in patent publication US20230338337A1, “BIOMARKERS FOR CANCER THERAPY USING MDM2 ANTAGONISTS” (OTSUKA PHARMACEUTICAL CO., LTD., priority 2019, published 2023).
“Also recorded” adds a separate entry of the source. Where two headings read alike, the source gives them in different places.

Experiments:
[1] = test system: multiple myeloma (MM) cells; conditions: in vitro and ex vivo; cited from earlier work
OCI-AML3 cells = assay: Induction of apoptosis by cleaved caspase-3 cytometry; format: cell-based; conditions: 72 h
SJSA-1 = assay: Protocol B: CellTiter-Glo cell viability assay
SN40R2 = assay: Protocol B: CellTiter-Glo cell viability assay; conditions: read-out: SN40R2 (Protocol B) % inhibition at 10, Protocol B
[2] = test system: #35 mesothelioma cell line; assay: Induction of activated caspase-3; format: cell-based, human; conditions: 72-hour treatment with 1 μM Compound 1
Protocol: (§1) In certain embodiments, the MDM2 antagonist induces apoptosis of the cancer cell. Apoptosis may typically be mediated via activated caspase-3. Induction of apoptosis can be determined by detecting cells that are positive for activated caspase-3 following 72-hour treatment with 1 μM of the MDM2 antagonist. […] In certain embodiments, at least 10%, at least 20% or at least 30% of cells staining positive for activated caspase-3 is an indicator of induced apoptosis. […] Active caspase-3 staining kits are commercially-available, for example the “Cleaved Caspase-3 Staining Kit (Red)” available from Abcam (Cambridge, UK) as catalogue number ab65617. The Invitrogen Cell Event dye (C10423) may also be used.
(§2) The extent of Compound 1-induced apoptosis is not predicted from the IC50 values obtained from the Alarmar Blue proliferation assays (Table 1), thus emphasising the impact of grouping cell lines specifically based on their apoptotic potential for subsequent bioinformatics analyses described in the following section.

[3] = test system: #24 mesothelioma cell line; assay: Induction of activated caspase-3; format: cell-based, human; conditions: 72-hour treatment with 1 μM Compound 1
Protocol: as §1, §2

[4] = test system: MESO-50T mesothelioma cell line; assay: Induction of activated caspase-3; format: cell-based, human; conditions: 72-hour treatment with 1 μM Compound 1
Protocol: as §1, §2

[5] = test system: #12 mesothelioma cell line; assay: Induction of activated caspase-3; format: cell-based, human; conditions: 72-hour treatment with 1 μM Compound 1
Protocol: as §1, §2

[6] = test system: #40 mesothelioma cell line; assay: Induction of activated caspase-3; format: cell-based, human; conditions: 72-hour treatment with 1 μM Compound 1
Protocol: as §1, §2

[7] = test system: #19 mesothelioma cell line; assay: Induction of activated caspase-3; format: cell-based, human; conditions: 72-hour treatment with 1 μM Compound 1
Protocol: as §1, §2

[8] = test system: #2 mesothelioma cell line; assay: Induction of activated caspase-3; format: cell-based, human; conditions: 72-hour treatment with 1 μM Compound 1
Protocol: as §1, §2

[9] = test system: MESO-29T mesothelioma cell line; assay: Induction of activated caspase-3; format: cell-based, human; conditions: 72-hour treatment with 1 μM Compound 1
Protocol: as §1, §2

[10] = test system: MESO-7T mesothelioma cell line; assay: Induction of activated caspase-3; format: cell-based, human; conditions: 72-hour treatment with 1 μM Compound 1
Protocol: as §1, §2

[11] = test system: #26 mesothelioma cell line; assay: Induction of activated caspase-3; format: cell-based, human; conditions: 72-hour treatment with 1 μM Compound 1
Protocol: as §1, §2

[12] = test system: #18 mesothelioma cell line; assay: Induction of activated caspase-3; format: cell-based, human; conditions: 72-hour treatment with 1 μM Compound 1
Protocol: as §1, §2

[13] = test system: #52 mesothelioma cell line; assay: Induction of activated caspase-3; format: cell-based, human; conditions: 72-hour treatment with 1 μM Compound 1
Protocol: as §1, §2

[14] = test system: #35 mesothelioma cell line; assay: 72-hour Alamar Blue proliferation assay; format: cell-based; conditions: Homo sapiens, read-out: Mean Compound 1 Proliferation IC50 (μM), cell line #35
Protocol: (§3) For all cell lines the number of viable cells was determined by measuring the conversion of Rezasurin (Alamar Blue) to Resorufin in response to mitochondrial activity of the viable cells. Alamar Blue™ (AbD Serotec/Bio-Rad, Hercules, CA, USA) was added to 10% of the well volume (20 μl/well) towards the end of the treatment period and incubated for a further 8-24 h. The plate was then read at 535 nm (excitation) and 590 nm (emission) on a SpectraMax Gemini reader (Molecular Devices, Sunnyvale, CA, USA). Each well was calculated as percentage of the mean DMSO control.

[15] = test system: #24 mesothelioma cell line; assay: 72-hour Alamar Blue proliferation assay; format: cell-based; conditions: Homo sapiens, read-out: Mean Compound 1 Proliferation IC50 (μM), cell line #24
Protocol: as §3

[16] = test system: MESO-50T mesothelioma cell line; assay: 72-hour Alamar Blue proliferation assay; format: cell-based; conditions: Homo sapiens, read-out: Mean Compound 1 Proliferation IC50 (μM), cell line MESO-50T
Protocol: as §3

[17] = test system: #12 mesothelioma cell line; assay: 72-hour Alamar Blue proliferation assay; format: cell-based; conditions: Homo sapiens, read-out: Mean Compound 1 Proliferation IC50 (μM), cell line #12
Protocol: as §3

[18] = test system: #40 mesothelioma cell line; assay: 72-hour Alamar Blue proliferation assay; format: cell-based; conditions: Homo sapiens, read-out: Mean Compound 1 Proliferation IC50 (μM), cell line #40
Protocol: as §3

[19] = test system: #19 mesothelioma cell line; assay: 72-hour Alamar Blue proliferation assay; format: cell-based; conditions: Homo sapiens, read-out: Mean Compound 1 Proliferation IC50 (μM), cell line #19
Protocol: as §3

[20] = test system: #2 mesothelioma cell line; assay: 72-hour Alamar Blue proliferation assay; format: cell-based; conditions: Homo sapiens, read-out: Mean Compound 1 Proliferation IC50 (μM), cell line #2
Protocol: as §3

[21] = test system: MESO-29T mesothelioma cell line; assay: 72-hour Alamar Blue proliferation assay; format: cell-based; conditions: Homo sapiens, read-out: Mean Compound 1 Proliferation IC50 (μM), cell line MESO-29T
Protocol: as §3

[22] = test system: #52 mesothelioma cell line; assay: 72-hour Alamar Blue proliferation assay; format: cell-based; conditions: Homo sapiens, read-out: Mean Compound 1 Proliferation IC50 (μM), cell line #52
Protocol: as §3

[23] = test system: 12 p53 wild-type, patient-derived mesothelioma cell lines; assay: 72-hour Alamar Blue proliferation assay, panel; format: cell-based; conditions: Homo sapiens
Protocol: as §3

[24] = test system: Caki-1 renal cancer cell line with BAP1 knock-down; assay: CAKI1 shBAP1 apoptotic assay (Annexin V); format: cell-based, human; conditions: 72 hours with 1 uM Compound 1; BAP1 loss versus control
Source text: 3 independent shRNAs targeting BAP1 were used and BAP1 knock-down levels achieved with 2 independent shRNAs.

[25] = test system: primary mesothelioma cell line Meso #24 with BAP1 knockdown; assay: Apoptosis after BAP1 shRNA knockdown; format: cell-based, human; conditions: BAP1 knockdown versus control
Source text: BAP1 shRNA was used on primary mesothelioma cell line Meso #24 to achieves table BAP1 knockdown.

[26] = test system: human patient-derived mesothelioma cell lines; assay: Induction of activated caspase-3, panel; format: cell-based; conditions: all 12 cell lines
Protocol: as §1, §2

[27] = test system: 210 p53 wild-type cancer cell lines; assay: Cell line panel screen, CellTiter-Glo, 3 days; format: cell-based; conditions: ANOVA, adjusted p-value<0.02
Protocol: Genomic features for these cell lines such as somatic mutations, copy number alterations and hypermethylation were obtained from the list of Cancer Functional Events as reported by Garnett et al (2016). ANOVA method was used to identify significant associations of genomics features to Compound 1 drug response.
Cancer cells were cultured in appropriate medium.
Each cell line was tested in triplicates.

human leukaemia models = conditions: mice; by inducing MDM2 degradation; cited from earlier work
tumour growth = conditions: cited from earlier work
cancer cell lines = conditions: cited from earlier work
[28] = test system: SN40R2 (p53 mutated, MDM2 amplified osteosarcoma); assay: Protocol A: SRB growth inhibition assay; conditions: read-out: SN40R2 IC50 (μM) (Protocol A)
[29] = read-out: SJSA1 IC50 (μM) (Protocol B), Protocol B

c1ccc2c(CCNc3ccc(Nc4ccncc4)cc3)c[nH]c2c1 [JNJ 26854165]
activity against multiple myeloma (MM) cells [1]: potent activity

C[C@@H]1CN(CC(=O)N2CC(C)(C)c3nc(CO)c(Cc4ccc(F)cc4)cc32)[C@@H](CN2CCOC[C@H]2C)CN1 [ASTX660, 1-{6-[(4-fluorophenyl)methyl]-5-(hydroxymethyl)-3,3-dimethyl-1H,2H,3H-pyrrolo[3,2-b]pyridin-1-yl}-2-[(2R,5R)-5-methyl-2-{[(3R)-3-methylmorpholin-4-yl]methyl}piperazin-1-yl]ethan-1-one, reference compound]
level of apoptosis (cleaved caspase-3) (OCI-AML3 cells; 0.1 μM COMPOUND 1 with 1 μM ASTX660 and 1 ng/ml TNF-alpha): sensitises the OCI-AML3 line to apoptosis induction by COMPOUND 1

CCC(O)(CN1CCN(C)CC1)c1cc(F)c2c(c1)C(=O)N(Cc1ncc(Cl)cn1)[C@@]2(O[C@H]1CCOC1)c1ccc(Cl)cc1 (stereo partly drawn) [Example 522, (3R)-3-(4-chlorophenyl)-2-[(5-chloropyrimidin-2-yl)methyl]-4-fluoro-6-[2-hydroxy-1-(4-methylpiperazin-1-yl)butan-2-yl]-3-[(3S)-oxolan-3-yloxy]-2,3-dihydro-1H-isoindol-1-one]
IC50 (SJSA-1; [29]): 0.048 µM
inhibition at 10 µM (SN40R2): 24%

CC[C@@](O)(c1cc(F)c2c(c1)C(=O)N([C@H](c1ccc(Cl)cc1)[C@H](C)C(=O)O)[C@@]2(OC)c1ccc(Cl)cc1)C1CCOCC1 [Compound 1, (2S,3S)-3-(4-chlorophenyl)-3-[(1R)-1-(4-chlorophenyl)-7-fluoro-5-[(1S)-1-hydroxy-1-(oxan-4-yl)propyl]-1-methoxy-3-oxo-2,3-dihydro-1H-isoindol-2-yl]-2-methylpropanoic acid]
apoptosis (cells positive for activated caspase-3) [2]: < 40%
apoptosis (cells positive for activated caspase-3) [3]: < 40%
apoptosis (cells positive for activated caspase-3) [4]: < 40%
cells staining positive for activated caspase-3 [5]: > 40%
cells staining positive for activated caspase-3 [6]: > 40%
cells staining positive for activated caspase-3 [7]: > 40%
cells staining positive for activated caspase-3 [8]: > 40%
apoptosis (cells positive for activated caspase-3) [9]: < 40%
cells staining positive for activated caspase-3 [10]: > 40%
apoptosis (cells positive for activated caspase-3) [11]: < 40%
apoptosis (cells positive for activated caspase-3) [12]: < 40%
cells staining positive for activated caspase-3 [13]: > 40%
IC50 [14]: 0.045 µM
IC50 [15]: 0.094 µM
IC50 [16]: 0.067 µM
IC50 [17]: 0.078 µM
IC50 [18]: 0.0092 µM
IC50 [19]: 0.17 µM
IC50 [20]: 0.062 µM
IC50 [21]: > 10 µM
IC50 [22]: 0.076 µM
IC50 ([23]; in 7 of the 12 cell lines): < 100 nM
IC50 ([23]; in 11 cell lines): < 400 nM
% of cells undergoing apoptosis (Annexin V) [24]: increased apoptosis
apoptosis after Compound 1 treatment [25]: increased apoptosis
activated caspase-3 induction [26]: increase in activated caspase-3 was observed in all cell lines
sensitivity of cell lines with CDKN2A loss versus wild-type CDKN2A [27]: enhanced sensitivity
level of apoptosis (cleaved caspase-3) (OCI-AML3 cells; 0.1 μM COMPOUND 1 alone): did not induce a high level of apoptosis; also recorded: does not induce substantial levels of cell death by apoptosis

O=C(O)C(F)(F)F.O=C1CCC(N2Cc3c(C#CCCCNC(=O)c4ccc(NC(=O)[C@@H]5NC6(CCCCC6)[C@@]6(C(=O)Nc7cc(Cl)ccc76)[C@H]5c5cccc(Cl)c5F)cc4)cccc3C2=O)C(=O)N1 (stereo partly shown) [LE-004]
growth inhibition in human leukaemia models (human leukaemia models): efficiently inhibited growth

COc1cc(C(N)=O)ccc1NC(=O)[C@@H]1N[C@@H](CC(C)(C)C)C2(C(=O)Nc3cc(Cl)ccc32)[C@H]1c1cccc(Cl)c1F (stereo partly shown) [RO-8994]
tumour growth inhibition (tumour growth): inhibit tumour growth

CC(C)(C)C[C@@H]1N[C@@H](C(=O)N[C@H]2CC[C@H](O)CC2)[C@H](c2cccc(Cl)c2F)[C@]12C(=O)Nc1cc(Cl)ccc12 [MI-773]
cell growth inhibition (cancer cell lines): potently inhibits cell growth

CCC(O)(c1cc(F)c2c(c1)C(=O)N(Cc1ccc(C#N)cn1)[C@@]2(O[C@H]1CCOC1)c1ccc(Cl)cc1)C1(F)CCOCC1 (stereo partly drawn) [Example 446, 6-{[(1R)-1-(4-chlorophenyl)-7-fluoro-5-[1-(4-fluorooxan-4-yl)-1-hydroxypropyl]-3-oxo-1-[(3S)-oxolan-3-yloxy]-2,3-dihydro-1H-isoindol-2-yl]methyl}pyridine-3-carbonitrile]
IC50 (SJSA-1; [29]): 0.023 µM
IC50 [28]: 29 µM

CCC(O)(c1cc(F)c2c(c1)C(=O)N(Cc1ncc(Cl)cc1O)[C@@]2(OCCO)c1ccc(Cl)cc1)c1cn(C)cn1 (stereo partly drawn) [Example 443, (3R)-2-[(5-chloro-3-hydroxypyridin-2-yl)methyl]-3-(4-chlorophenyl)-4-fluoro-6-[1-hydroxy-1-(1-methyl-1H-imidazol-4-yl)propyl]-3-(2-hydroxyethoxy)-2,3-dihydro-1H-isoindol-1-one]
IC50 (SJSA-1; Homo sapiens, SJSA-1, read-out: SJSA1 IC50 (μM) (Protocol B), Protocol B): 0.093 µM
inhibition at 10 µM (SN40R2): 3%
IC50 [28]: 38 µM
